Patent US20260266848A1, “COMPOSITIONS AND METHODS FOR DIAGNOSING AND TREATING DYSTONIA” (Duke University, priority 2023, published 2026)

What was measured:
[1] = system: DYT-TOR1A MEF EVs; test: Quantitative LC-MS/MS proteomics of EVs from drug-treated DYT-TOR1A MEF cultures (ritonavir, salubrinal); assay type: cell-based, mouse; design: key to RTV Corrective Direction / RTV Corrective Direction, Grwd1 / RTV Corrective Direction, Srrm2 / RTV Corrective Direction, Rbm17 / RTV Corrective Direction, Dcaf8 / RTV Corrective Direction, Edil3 / RTV Corrective Direction, Timp3 / RTV Corrective Direction, Heatr3 / RTV Corrective Direction, Brd4 / RTV Corrective Direction, P3h4 / RTV Corrective Direction, Pacsin3 / RTV Corrective Direction, Naa50 / RTV Corrective Direction, Lpar6 / RTV Corrective Direction, Ndrg1 / RTV Corrective Direction, Kntc1 / RTV Corrective Direction, Cdk11b / RTV Corrective Direction, Sumo1 / RTV Corrective Direction, Lsm4 / RTV Corrective Direction, Hmga2 / RTV Corrective Direction, Cstf1 / RTV Corrective Direction, Tes / RTV Corrective Direction, Sbno1 / RTV Corrective Direction, Unc119b / RTV Corrective Direction, Cfdp1 / RTV Corrective Direction, Sec61b: YES = protein abundance effect opposite to DYT/WT; details: EV protein abundance
[2] = system: WT MEF EVs; test: Quantitative LC-MS/MS proteomics of EVs from ISRIB-treated WT MEF cultures; assay type: cell-based, mouse; design: key to ISRIB and DYT Parallel Direction / ISRIB and DYT Parallel Direction, Ctdsp1 / ISRIB and DYT Parallel Direction, Pcdh19 / ISRIB and DYT Parallel Direction, Tspan7 / ISRIB and DYT Parallel Direction, Myo1e / ISRIB and DYT Parallel Direction, Plpp3 / ISRIB and DYT Parallel Direction, Sh3bp4 / ISRIB and DYT Parallel Direction, Dnajc7 / ISRIB and DYT Parallel Direction, Drg1 / ISRIB and DYT Parallel Direction, Maea: YES = protein abundance effect similar to DYT/WT; details: EV protein abundance

Akr1b1
RTV Corrective Direction ([1]; DYT + RTV (ritonavir) vs DYT, direction compared with DYT/WT): YES | DYT + RTV/DYT Cohen's d ([1]; ritonavir (RTV)-treated DYT vs DYT): 5.32 | WT + ISRIB/WT Cohen's d ([2]; ISRIB-treated WT vs WT): −0.22 | ISRIB and DYT Parallel Direction ([2]; WT + ISRIB vs WT, direction compared with DYT/WT): YES
